Experimental data reported in the supplement of paper PMC10307832.

Tests used:
Assay in all cases: relative viability (nuclei count vs DMSO), 5 days (fraction); higher = more cells survive
[1] = compound: CS(=O)(=O)c1ccc(-c2cnc(N)c(C(=O)Nc3ccccc3)n2)cc1 [VE-821] + C[C@@H](Oc1cc(-c2cnn(C3CCNCC3)c2)cnc1N)c1c(Cl)ccc(F)c1Cl [Crizotinib] (partner 1 µM)
How it was run: (§1)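 Relative viability divides the nuclei count in treated wells by that in vehicle wells. Lung cancer cell lines were seeded in 1536-well plates, dosed by pin tool the next day, and fixed and stained after 5 days in one step with final 0.05% Triton X-100, 1% formaldehyde and 1 ug/ml Hoechst. Dosing was a single drug or a fixed anchor-drug dose plus five library-drug doses (not always all listed) in √10 steps, and values are medians of duplicate plates imaged at 4×.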

[2] = compound: CS(=O)(=O)c1ccc(C(=O)Nc2ccc(Cl)c(-c3ccccn3)c2)c(Cl)c1 [Vismodegib] + CC(=O)c1c(C)c2cnc(Nc3ccc(N4CCNCC4)cn3)nc2n(C2CCCC2)c1=O [Palbociclib] (partner 0.5 µM)
How it was run: as §1

[3] = compound: N#CC[C@H](C1CCCC1)n1cc(-c2ncnc3[nH]ccc23)cn1 [Ruxolitinib] + O=C(CCCCCCC(=O)Nc1ccccc1)NO [Vorinostat] (partner 1 µM)
How it was run: as §1

Cell Line | relative viability ([1]; first compound 0.08 µM) | relative viability ([1]; first compound 0.253 µM) | relative viability ([1]; first compound 0.8 µM) | relative viability ([1]; first compound 2.53 µM) | relative viability ([1]; first compound 8 µM) | relative viability ([2]; first compound 0.08 µM) | relative viability ([2]; first compound 0.253 µM) | relative viability ([2]; first compound 0.8 µM) | relative viability ([2]; first compound 8 µM) | relative viability ([3]; first compound 0.08 µM) | relative viability ([3]; first compound 0.253 µM) | relative viability ([3]; first compound 0.8 µM) | relative viability ([3]; first compound 2.53 µM) | relative viability ([3]; first compound 8 µM) | relative viability ([2]; first compound 2.53 µM)
NCI-H1944 | 1.25 | 1.05 | 0.956 | 1.14 | 0.696 | 0.292 | 0.324 | 0.326 | 0.379 | 0.63 | 0.537 | 0.605 | 0.483 | 0.521 | –
NCI-H322M | 1.03 | – | 0.858 | 0.881 | 0.502 | 0.455 | 0.465 | 0.459 | 0.509 | 0.951 | 1.01 | 1.05 | 1.3 | 1.4 | 0.506
HCC-366 | 0.792 | 0.428 | 0.403 | 0.337 | 0.045 | 0.342 | 0.373 | 0.463 | 0.449 | 0.34 | 0.321 | 0.423 | 0.192 | 0.167 | 0.456
HCC-78 | 0.344 | 0.368 | 0.338 | 0.352 | 0.336 | 0.535 | 0.505 | 0.483 | 0.488 | 0.412 | 0.455 | 0.429 | 0.439 | 0.395 | 0.44
CAL-12T | 0.798 | 0.674 | 0.537 | 0.369 | 0.316 | 0.45 | 0.499 | 0.569 | 0.442 | 0.86 | 0.693 | 0.848 | 0.653 | 0.69 | 0.454
NCI-H2228 | 0.479 | 0.459 | 0.414 | 0.37 | 0.35 | 0.927 | 0.74 | 0.761 | 0.955 | 0.595 | 0.717 | 0.9 | 0.69 | 0.37 | 0.627
